From patent US12201632B2, “Levoketoconazole for treatment of congenital adrenal hyperplasia and primary aldosteronism” (Strongbridge Dublin Limited, priority 2018, dated 2025)
Marks after values point to notes of the source that are not given here.

Assays:
[1] = system: HAC15 cells; assay: Cortisol production by HAC15 cells (immunoassay); format: cell-based, Human; conditions: HAC15, 10 nM ACTH
Protocol: Human adrenocortical carcinoma HAC15 and mouse corticotroph AtT20 cells were used, purchased as a kind gift by Dr. W. Rainey, and obtained from Dr. J. Tooze (European Organization for Molecular Biology), respectively. Both cell lines were cultured in 75 cm^2 flasks at 37° C. in a humidified incubator (Greiner Bio-One, Alphen a/d Rijn, the Netherlands) at 5% CO2. Dulbecco's Modified Eagle Medium F12 containing 5% fetal calf serum was used for HAC15, whereas AtT20 cells were cultured in Dulbecco's minimal essential medium (DMEM) supplemented with 10% fetal calf serum. Both mediums were supplemented with L-glutamine (2 mmol/L) and penicillin (10^5 U/L). Short tandem repeat (str) profiling using a Powerplex Kit (Promega, Leiden, the Netherlands) of HAC15 and AtT20 gave results consistent with the ATCC database, confirming the identity of both cell lines. Medium and supplements were obtained from Invitrogen, Breda, the Netherlands. Once a week, cells were harvested with trypsin (0.05%)-EDTA (0.53 mM) and resuspended in culture medium. Levoketoconazole (COR-003) and racemic ketoconazole (both from Cortendo AB) were dissolved in absolute ethanol (EtOH), according to manufacturer's instructions, and stored at −20° C. at a stock concentration of […]. At the start of each experiment, both drugs were freshly prepared and diluted in EtOH in the correct concentrations. Synacten (synthetic ACTH, Novartis Pharma A.G.) stock concentration was stored at 4° C. and dissolved in culture medium at the day of use. The final concentrations of ACTH were chosen based on a dose-response curve in HAC15 cells and previously reported studies in the literature. For HAC15, 200,000 and 100,000 cells were plated in 0.5 ml medium in 24 well plates for experiments of 1 and 3 days, respectively. […]
Cortisol concentrations were measured in the supernatant using a chemiluminescence immunoassay system (Immulite 2000XPi; Siemens DPC Inc., Los Angeles, Calif., USA). In addition, we carried out multi-steroid analysis by liquid chromatography/mass spectrometry (LC/MS-MS) to accurately quantify androstenedione, corticosterone, cortisol, 11-deoxycortisol, DHEA, DHEAS, progesterone, 17-hydroxyprogesterone, and testosterone. […] Steroids were quantified with respect to a calibration series, with internal standards. Steroids were quantified on a Xevo TQS LC-MS/MS (Waters Chromatography).
Statistical analysis was performed using Graphpad Prism 6.0 (Graphpad Software, San Diego, CA). […] Effects of both compounds on the steroid profile were measured as absolute change compared to control and compared using the Student's t-test. When assessing differences between effects of both compounds, the percentage change was evaluated and compared in order to correct for differences in the vehicle treated control cells. […]

[2] = system: EAS associated adrenal hyperplasia cultures; assay: Cortisol production in primary EAS associated adrenal hyperplasia cultures; format: cell-based, human; conditions: EAS associated hyperplasia no. 1, ACTH (85 μM), mean percentage increase of cortisol production compared to control
Protocol: (§1) To obtain primary cultures, adrenal specimens (adrenocortical adenomas, adrenal hyperplasias and adrenocortical carcinomas) were collected after adrenalectomy at the department of Surgery, Erasmus University Medical Center, Rotterdam, the Netherlands, between April 2016 and May 2018. The study was conducted under guidelines that have been approved by the Medical Ethics Committee of the Erasmus Medical Center and informed consent was obtained from all patients. Immediately after surgery, specimens were minced into small pieces of 2-3 mm^3, washed in culture medium and centrifuged for 5 minutes at 600 g. The tissue was stored overnight in culture medium at 4° C., where after the tissue was centrifuged again and the supernatant was removed. Fragments were dissociated using 10-25 ml collagenase type 1 (2 mg/ml: Sigma-Aldrich), followed by incubation at 37° C. for up to two hours. Ficoll (GE healthcare) density gradient separation was used once or twice as required in order to separate contaminating red blood cells from the tumor cells. Cell viability and cell amount were counted by trypan blue exclusion. Dissociated cells were plated at a density of 10^5 cells per well. ACTH-secreting corticotroph pituitary adenoma tissue from patients with Cushing's disease (n=2) was available after transsphenoidal surgery. Single-cell suspensions of the pituitary adenoma tissues were prepared as previously described in detail.
(§2) Owing to a limited number of cells obtained from the specimens, not all experiments were carried out in every primary culture.
(§3) Cortisol concentrations were measured in the supernatant using a chemiluminescence immunoassay system (Immulite 2000XPi; Siemens DPC Inc., Los Angeles, Calif., USA). In addition, we carried out multi-steroid analysis by liquid chromatography/mass spectrometry (LC/MS-MS) to accurately quantify androstenedione, corticosterone, cortisol, 11-deoxycortisol, DHEA, DHEAS, progesterone, 17-hydroxyprogesterone, and testosterone. Concentrations that were tested on the LC/MS-MS were closest to 50% inhibition or maximal inhibition of cortisol as determined by the immunoassay. Steroids were quantified with respect to a calibration series, with internal standards. Steroids were quantified on a Xevo TQS LC-MS/MS (Waters Chromatography).
(§4) Statistical analysis was performed using Graphpad Prism 6.0 (Graphpad Software, San Diego, CA). Non-linear regression curve fitting program was used to calculate the half maximal inhibitory concentrations (IC50) on cortisol production. Effects of both compounds on the steroid profile were measured as absolute change compared to control and compared using the Student's t-test. When assessing differences between effects of both compounds, the percentage change was evaluated and compared in order to correct for differences in the vehicle treated control cells. Values of P<0.05 were considered statistically significant and data are presented as mean SEM.

[3] = system: primary human adrenocortical carcinoma cultures; assay: Cortisol production in primary adrenocortical carcinoma cultures; format: cell-based; conditions: ACC no. 3, ACTH (85 μM), mean percentage increase of cortisol production compared to control
Protocol: as §1, §2, §3, §4

[4] = system: HAC15 cells; assay: Steroid profile by LC/MS-MS in HAC15 cells; format: cell-based, Human; conditions: HAC15
Protocol: Human adrenocortical carcinoma HAC15 and mouse corticotroph AtT20 cells were used, purchased as a kind gift by Dr. W. Rainey, and obtained from Dr. J. Tooze (European Organization for Molecular Biology), respectively. Both cell lines were cultured in 75 cm^2 flasks at 37° C. in a humidified incubator (Greiner Bio-One, Alphen a/d Rijn, the Netherlands) at 5% CO2. Dulbecco's Modified Eagle Medium F12 containing 5% fetal calf serum was used for HAC15, whereas AtT20 cells were cultured in Dulbecco's minimal essential medium (DMEM) supplemented with 10% fetal calf serum. Both mediums were supplemented with L-glutamine (2 mmol/L) and penicillin (10^5 U/L). Short tandem repeat (str) profiling using a Powerplex Kit (Promega, Leiden, the Netherlands) of HAC15 and AtT20 gave results consistent with the ATCC database, confirming the identity of both cell lines. Medium and supplements were obtained from Invitrogen, Breda, the Netherlands. Once a week, cells were harvested with trypsin (0.05%)-EDTA (0.53 mM) and resuspended in culture medium. Levoketoconazole (COR-003) and racemic ketoconazole (both from Cortendo AB) were dissolved in absolute ethanol (EtOH), according to manufacturer's instructions, and stored at −20° C. at a stock concentration of […]. At the start of each experiment, both drugs were freshly prepared and diluted in EtOH in the correct concentrations. Synacten (synthetic ACTH, Novartis Pharma A.G.) stock concentration was stored at 4° C. and dissolved in culture medium at the day of use. The final concentrations of ACTH were chosen based on a dose-response curve in HAC15 cells and previously reported studies in the literature. For HAC15, 200,000 and 100,000 cells were plated in 0.5 ml medium in 24 well plates for experiments of 1 and 3 days, respectively. For AtT20, cell amounts were 100,000 and 30,000. One day after seeding the HAC15 cells, the medium was refreshed and cells were treated 1 or 3 days in quadruplicate with levoketoconazole or racemic ketoconazole (0.05-5 μM), with or without 10 nM ACTH. To study effects of both compounds on pituitary AtT20 cells, concentrations of 0.1 to 10 μM of both drugs were used. Controls were vehicle treated. […] Media were collected after 1 or 3 days of incubation and stored at −20° C. until analysis. All cell culture experiments were carried out at least twice.
as §3, §4

[5] = system: EAS associated adrenal hyperplasia no. 1 primary culture; assay: Steroid profile by LC/MS-MS in EAS associated adrenal hyperplasia no. 1; format: cell-based, human; conditions: EAS associated adrenal hyperplasia no. 1
Protocol: as §1
Primary culture conditions for primary cultures were similar as described in the section ‘cell culture and compounds’, but with small adjustments: ACTH was used at a concentration of 85 pM (250 pg/mL), treatment was started 3-4 days after plating of the cells and cells were incubated for 3 days, and; for pituitary primary cultures, levoketoconazole and racemic ketoconazole were only tested at a concentration of 1 μM. Owing to a limited number of cells obtained from the specimens, not all experiments were carried out in every primary culture.
as §3, §4

## ACTH: Synacten (synthetic ACTH, Novartis Pharma A.G.), used to stimulate cortisol production
[1]; 1 day of incubation
  mean increase in cortisol by ACTH stimulation: 34%
[1]; 3 days of incubation
  mean increase in cortisol by ACTH stimulation: 61%
[2]
  ACTH stimulated cortisol (%): +228%
[3]
  ACTH stimulated cortisol (%): +67% *
[4]
  increase of corticosterone under ACTH: 359%
  increase of progesterone under ACTH: 7%
[5]
  change of progesterone by ACTH stimulation: −11%
  change of testosterone by ACTH stimulation: did not change
  mean increase of corticosterone, 17-OHP, 11-DOC, cortisol and androstenedione by ACTH stimulation: +111%
